Measurements reported in ChEMBL document CHEMBL4800732, “Data for DCP probe TP-040” (2021).

Columns and labels:
[1] = target: 5-hydroxytryptamine receptor 1A (Homo sapiens) (UniProt P08908); settings: Compound concentration 10.0 uM
[2] = target: Muscarinic acetylcholine receptor M2 (Homo sapiens) (UniProt P08172); settings: Compound concentration 10.0 uM
[3] = target: D(3) dopamine receptor (Homo sapiens) (UniProt P35462); settings: Compound concentration 10.0 uM
[4] = target: Alpha-2C adrenergic receptor (Homo sapiens) (UniProt P18825); settings: Compound concentration 10.0 uM
[5] = target: Delta-type opioid receptor (Homo sapiens) (UniProt P41143); settings: Compound concentration 10.0 uM
[6] = target: Sodium-dependent serotonin transporter (Homo sapiens) (UniProt P31645); settings: Compound concentration 10.0 uM
Sodium-dependent serotonin transporter (Homo sapiens), sequence (P31645 whole entry, looked up): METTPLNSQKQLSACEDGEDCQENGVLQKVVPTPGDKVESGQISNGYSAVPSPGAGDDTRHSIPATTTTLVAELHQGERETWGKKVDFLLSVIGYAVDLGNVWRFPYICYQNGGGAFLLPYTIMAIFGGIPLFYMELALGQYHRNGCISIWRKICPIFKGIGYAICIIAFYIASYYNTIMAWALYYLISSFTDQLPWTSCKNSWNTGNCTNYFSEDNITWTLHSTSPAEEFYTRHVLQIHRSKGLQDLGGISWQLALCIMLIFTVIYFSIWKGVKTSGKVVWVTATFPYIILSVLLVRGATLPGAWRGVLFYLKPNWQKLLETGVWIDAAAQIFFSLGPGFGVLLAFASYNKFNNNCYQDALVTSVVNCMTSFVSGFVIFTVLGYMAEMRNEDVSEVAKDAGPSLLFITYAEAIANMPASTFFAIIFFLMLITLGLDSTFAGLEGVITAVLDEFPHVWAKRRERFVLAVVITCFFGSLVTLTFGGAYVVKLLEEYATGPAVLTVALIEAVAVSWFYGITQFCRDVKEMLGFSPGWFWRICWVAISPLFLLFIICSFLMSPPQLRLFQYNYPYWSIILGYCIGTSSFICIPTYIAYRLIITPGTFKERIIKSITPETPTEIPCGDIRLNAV

[7] = target: Sigma non-opioid intracellular receptor 1 (Homo sapiens, UniProt Q99720); settings: Compound concentration 10.0 uM
[8] = target: T1, 5-hydroxytryptamine receptor 1D (Homo sapiens, UniProt P28221); settings: Compound concentration 10.0 uM
T1 sequence (P28221 whole entry): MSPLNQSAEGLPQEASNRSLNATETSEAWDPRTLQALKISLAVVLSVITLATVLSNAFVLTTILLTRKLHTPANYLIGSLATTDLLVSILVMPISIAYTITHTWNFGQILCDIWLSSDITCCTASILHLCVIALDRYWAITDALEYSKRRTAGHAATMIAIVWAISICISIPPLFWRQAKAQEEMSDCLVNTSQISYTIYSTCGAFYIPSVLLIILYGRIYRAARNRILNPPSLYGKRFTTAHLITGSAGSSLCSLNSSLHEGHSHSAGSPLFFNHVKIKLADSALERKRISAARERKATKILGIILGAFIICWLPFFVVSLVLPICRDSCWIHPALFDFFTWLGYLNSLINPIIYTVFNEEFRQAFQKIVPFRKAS

[9] = target: T1, 5-hydroxytryptamine receptor 1D; assay: GPCRScan assay: inhibition of 5-HT1D; parameters: radioligand conc. used [nm] 1.0 – 2.0, parental cells HEKT
[10] = target: T2, GABA-A receptor; anion channel (Rattus norvegicus) (UniProt O09028+P15431+P18506+P18508+P19969+P20236+P23574+P23576+P28471+P28473+P30191+P62813+P63079+P63138+Q91ZM7+Q9ES14); settings: Compound concentration 10.0 uM
[11] = target: T2, GABA-A receptor; anion channel (Rattus norvegicus); settings: Compound concentration 10.0 uM; remark: listed apart in the source
[12] = target: T3, Alpha-2C adrenergic receptor (Homo sapiens, UniProt P18825); assay: GPCRScan assay: inhibition of Alpha2C; parameters: radioligand conc. used [nm] 0.5 – 1.0, parental cells stable MDCK
T3 sequence (P18825 whole entry): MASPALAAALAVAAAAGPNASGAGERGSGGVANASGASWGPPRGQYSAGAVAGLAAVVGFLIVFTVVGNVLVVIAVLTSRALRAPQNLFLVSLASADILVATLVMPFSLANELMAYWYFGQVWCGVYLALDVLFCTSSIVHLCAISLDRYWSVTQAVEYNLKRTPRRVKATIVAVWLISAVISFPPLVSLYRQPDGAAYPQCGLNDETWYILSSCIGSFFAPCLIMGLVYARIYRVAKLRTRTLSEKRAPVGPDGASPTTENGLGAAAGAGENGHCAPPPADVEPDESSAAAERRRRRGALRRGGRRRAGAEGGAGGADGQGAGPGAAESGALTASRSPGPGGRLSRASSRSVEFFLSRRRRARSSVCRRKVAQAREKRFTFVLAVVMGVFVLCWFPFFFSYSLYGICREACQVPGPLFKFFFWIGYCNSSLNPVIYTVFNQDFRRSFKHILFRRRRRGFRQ

[13] = target: T4, Sodium-dependent noradrenaline transporter (Homo sapiens, UniProt P23975); assay: GPCRScan assay: inhibition of NET; parameters: radioligand conc. used [nm] 1.3 – 5.0, parental cells stable HEK
T4 sequence (P23975 whole entry): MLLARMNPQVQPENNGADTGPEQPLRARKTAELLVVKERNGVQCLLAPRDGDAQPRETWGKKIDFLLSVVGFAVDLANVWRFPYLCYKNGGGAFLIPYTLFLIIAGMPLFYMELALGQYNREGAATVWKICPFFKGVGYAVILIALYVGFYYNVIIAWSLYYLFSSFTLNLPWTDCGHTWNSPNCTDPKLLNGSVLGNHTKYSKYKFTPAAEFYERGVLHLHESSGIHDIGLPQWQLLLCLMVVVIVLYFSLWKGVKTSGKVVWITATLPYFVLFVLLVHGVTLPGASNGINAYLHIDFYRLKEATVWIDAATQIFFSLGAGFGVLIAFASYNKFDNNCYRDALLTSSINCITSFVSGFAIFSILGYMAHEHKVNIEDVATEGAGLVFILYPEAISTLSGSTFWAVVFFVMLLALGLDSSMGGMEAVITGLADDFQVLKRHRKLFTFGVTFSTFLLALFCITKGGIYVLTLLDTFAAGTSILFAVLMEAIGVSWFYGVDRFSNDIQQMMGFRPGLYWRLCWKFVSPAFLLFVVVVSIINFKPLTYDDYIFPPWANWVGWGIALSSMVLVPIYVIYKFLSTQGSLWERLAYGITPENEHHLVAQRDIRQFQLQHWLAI

[14] = target: Sigma intracellular receptor 2 (Homo sapiens, UniProt Q5BJF2); settings: Compound concentration 10.0 uM
[15] = target: Muscarinic acetylcholine receptor M5 (Homo sapiens) (UniProt P08912); settings: Compound concentration 10.0 uM
[16] = target: T5, 5-hydroxytryptamine receptor 2B (Homo sapiens, UniProt P41595); settings: Compound concentration 10.0 uM
T5 sequence (P41595 whole entry): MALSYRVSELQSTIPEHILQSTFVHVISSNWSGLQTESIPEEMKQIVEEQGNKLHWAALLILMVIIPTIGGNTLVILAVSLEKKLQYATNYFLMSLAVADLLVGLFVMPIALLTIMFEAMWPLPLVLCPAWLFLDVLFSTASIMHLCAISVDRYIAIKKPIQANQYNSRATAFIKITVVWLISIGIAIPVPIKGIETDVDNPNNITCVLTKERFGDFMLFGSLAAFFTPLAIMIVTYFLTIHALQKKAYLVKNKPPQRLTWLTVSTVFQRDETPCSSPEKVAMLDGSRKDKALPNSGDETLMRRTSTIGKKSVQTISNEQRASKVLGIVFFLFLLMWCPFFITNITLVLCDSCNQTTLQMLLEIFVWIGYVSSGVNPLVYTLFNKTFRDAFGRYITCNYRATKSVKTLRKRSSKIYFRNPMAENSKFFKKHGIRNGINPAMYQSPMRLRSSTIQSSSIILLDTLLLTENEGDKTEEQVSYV

[17] = target: Muscarinic acetylcholine receptor M4 (Homo sapiens) (UniProt P08173); settings: Compound concentration 10.0 uM
[18] = target: 5-hydroxytryptamine receptor 5A (Homo sapiens, UniProt P47898); settings: Compound concentration 10.0 uM
[19] = target: Muscarinic acetylcholine receptor M1 (Homo sapiens) (UniProt P11229); settings: Compound concentration 10.0 uM
Muscarinic acetylcholine receptor M1 (Homo sapiens), sequence (P11229 whole entry): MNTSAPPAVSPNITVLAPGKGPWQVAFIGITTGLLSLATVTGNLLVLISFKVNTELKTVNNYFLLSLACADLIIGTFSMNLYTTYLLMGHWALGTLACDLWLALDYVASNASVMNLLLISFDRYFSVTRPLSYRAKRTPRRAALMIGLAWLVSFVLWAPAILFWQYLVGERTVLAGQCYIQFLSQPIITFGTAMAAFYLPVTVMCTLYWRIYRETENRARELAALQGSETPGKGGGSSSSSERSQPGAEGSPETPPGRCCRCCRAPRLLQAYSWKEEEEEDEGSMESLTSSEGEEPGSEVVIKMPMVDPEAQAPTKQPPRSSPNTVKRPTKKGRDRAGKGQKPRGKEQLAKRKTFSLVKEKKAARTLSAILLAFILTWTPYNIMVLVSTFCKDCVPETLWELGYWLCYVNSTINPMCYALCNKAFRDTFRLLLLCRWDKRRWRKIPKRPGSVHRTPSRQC

[20] = target: Alpha-1B adrenergic receptor (Homo sapiens) (UniProt P35368); settings: Compound concentration 10.0 uM
Alpha-1B adrenergic receptor (Homo sapiens), sequence (P35368 whole entry): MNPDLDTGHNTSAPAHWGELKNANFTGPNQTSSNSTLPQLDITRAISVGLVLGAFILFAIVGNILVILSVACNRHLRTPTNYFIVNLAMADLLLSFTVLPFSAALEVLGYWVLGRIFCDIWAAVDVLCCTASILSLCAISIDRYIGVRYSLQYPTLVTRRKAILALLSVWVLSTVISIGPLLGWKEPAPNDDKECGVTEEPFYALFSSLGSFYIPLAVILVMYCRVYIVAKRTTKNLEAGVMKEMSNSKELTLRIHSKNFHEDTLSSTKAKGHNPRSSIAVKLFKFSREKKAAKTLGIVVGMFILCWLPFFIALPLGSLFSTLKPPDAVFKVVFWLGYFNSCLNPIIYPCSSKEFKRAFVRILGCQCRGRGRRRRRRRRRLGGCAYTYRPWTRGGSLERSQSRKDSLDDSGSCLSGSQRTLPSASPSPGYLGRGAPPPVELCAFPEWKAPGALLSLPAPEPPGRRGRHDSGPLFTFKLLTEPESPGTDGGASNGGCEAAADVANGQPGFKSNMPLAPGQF

[21] = target: Sodium-dependent dopamine transporter (Homo sapiens, UniProt Q01959); settings: Compound concentration 10.0 uM
Sodium-dependent dopamine transporter, sequence (Q01959 whole entry): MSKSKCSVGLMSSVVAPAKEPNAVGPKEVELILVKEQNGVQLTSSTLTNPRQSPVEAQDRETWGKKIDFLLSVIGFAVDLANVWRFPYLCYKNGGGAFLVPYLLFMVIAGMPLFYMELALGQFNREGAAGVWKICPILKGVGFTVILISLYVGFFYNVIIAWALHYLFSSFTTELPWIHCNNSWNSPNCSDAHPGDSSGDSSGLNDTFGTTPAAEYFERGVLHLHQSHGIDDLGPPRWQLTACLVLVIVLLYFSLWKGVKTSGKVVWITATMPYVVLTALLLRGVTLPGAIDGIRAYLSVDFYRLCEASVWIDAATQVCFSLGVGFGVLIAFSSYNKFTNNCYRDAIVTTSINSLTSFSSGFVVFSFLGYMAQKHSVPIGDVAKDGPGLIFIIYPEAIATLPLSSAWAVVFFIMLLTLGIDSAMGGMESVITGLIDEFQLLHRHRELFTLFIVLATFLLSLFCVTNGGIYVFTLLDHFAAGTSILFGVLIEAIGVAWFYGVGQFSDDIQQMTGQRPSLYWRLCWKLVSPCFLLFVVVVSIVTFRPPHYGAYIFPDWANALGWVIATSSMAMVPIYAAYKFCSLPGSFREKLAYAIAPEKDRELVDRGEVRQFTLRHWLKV

[22] = target: T5, 5-hydroxytryptamine receptor 2B; assay: GPCRScan assay: inhibition of 5-HT2B; parameters: radioligand conc. used [nm] 1.0 – 2.0, parental cells stable HEK
[23] = target: 5-hydroxytryptamine receptor 7 (Homo sapiens, UniProt P34969); settings: Compound concentration 10.0 uM
5-hydroxytryptamine receptor 7, sequence (P34969 whole entry): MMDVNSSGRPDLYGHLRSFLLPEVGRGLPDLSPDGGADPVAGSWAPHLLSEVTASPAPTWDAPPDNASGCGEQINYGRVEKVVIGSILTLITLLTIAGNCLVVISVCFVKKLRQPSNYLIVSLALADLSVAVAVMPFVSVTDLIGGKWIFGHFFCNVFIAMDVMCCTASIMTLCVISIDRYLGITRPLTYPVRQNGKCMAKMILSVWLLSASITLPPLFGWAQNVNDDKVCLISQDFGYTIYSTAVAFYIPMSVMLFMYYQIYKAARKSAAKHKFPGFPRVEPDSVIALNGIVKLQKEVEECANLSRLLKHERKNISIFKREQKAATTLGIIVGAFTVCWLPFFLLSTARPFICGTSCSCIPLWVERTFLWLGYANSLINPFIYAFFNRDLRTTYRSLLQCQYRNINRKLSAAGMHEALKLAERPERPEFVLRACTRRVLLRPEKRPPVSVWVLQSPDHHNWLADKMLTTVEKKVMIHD

Rattus norvegicus = organism: Rattus norvegicus; settings: Compound concentration 10.0 uM
[24] = target: T4, Sodium-dependent noradrenaline transporter; settings: Compound concentration 10.0 uM
[25] = target: Muscarinic acetylcholine receptor M3 (Homo sapiens) (UniProt P20309); settings: Compound concentration 10.0 uM
[26] = target: 5-hydroxytryptamine receptor 2C (Homo sapiens) (UniProt P28335); settings: Compound concentration 10.0 uM
[27] = target: D(4) dopamine receptor (Homo sapiens) (UniProt P21917); settings: Compound concentration 10.0 uM
[28] = target: 5-hydroxytryptamine receptor 3A (Homo sapiens) (UniProt P46098); settings: Compound concentration 10.0 uM
[29] = target: T6, 5-hydroxytryptamine receptor 2C (Homo sapiens, UniProt P28335); assay: GPCRScan assay: inhibition of 5-HT2C; parameters: radioligand conc. used [nm] 1.0 – 2.5, parental cells HEK T
T6 sequence (P28335 whole entry): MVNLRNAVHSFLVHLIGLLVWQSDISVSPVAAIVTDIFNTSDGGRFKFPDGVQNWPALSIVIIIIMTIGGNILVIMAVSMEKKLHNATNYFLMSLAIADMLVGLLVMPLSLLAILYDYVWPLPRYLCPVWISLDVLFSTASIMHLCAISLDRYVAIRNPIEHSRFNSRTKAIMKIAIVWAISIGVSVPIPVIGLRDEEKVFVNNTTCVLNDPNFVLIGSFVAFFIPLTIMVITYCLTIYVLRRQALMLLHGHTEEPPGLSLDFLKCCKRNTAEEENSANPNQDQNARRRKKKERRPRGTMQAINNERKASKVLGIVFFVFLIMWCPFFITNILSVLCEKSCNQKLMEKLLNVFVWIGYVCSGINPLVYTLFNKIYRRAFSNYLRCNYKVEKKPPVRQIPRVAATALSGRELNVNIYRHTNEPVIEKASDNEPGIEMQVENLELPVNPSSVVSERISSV

[30] = target: 5-hydroxytryptamine receptor 1E (Homo sapiens) (UniProt P28566); settings: Compound concentration 10.0 uM
5-hydroxytryptamine receptor 1E (Homo sapiens), sequence (P28566 whole entry): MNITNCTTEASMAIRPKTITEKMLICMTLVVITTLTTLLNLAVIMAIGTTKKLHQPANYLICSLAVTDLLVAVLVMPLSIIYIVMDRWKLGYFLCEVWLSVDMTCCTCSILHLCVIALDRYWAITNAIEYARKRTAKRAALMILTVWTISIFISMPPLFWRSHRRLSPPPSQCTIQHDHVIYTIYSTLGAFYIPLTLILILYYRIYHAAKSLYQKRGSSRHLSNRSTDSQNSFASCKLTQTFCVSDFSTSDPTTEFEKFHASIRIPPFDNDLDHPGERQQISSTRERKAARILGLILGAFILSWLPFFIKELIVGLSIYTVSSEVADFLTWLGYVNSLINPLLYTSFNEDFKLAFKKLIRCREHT

D(3) dopamine receptor (Homo sapiens), sequence (P35462 whole entry): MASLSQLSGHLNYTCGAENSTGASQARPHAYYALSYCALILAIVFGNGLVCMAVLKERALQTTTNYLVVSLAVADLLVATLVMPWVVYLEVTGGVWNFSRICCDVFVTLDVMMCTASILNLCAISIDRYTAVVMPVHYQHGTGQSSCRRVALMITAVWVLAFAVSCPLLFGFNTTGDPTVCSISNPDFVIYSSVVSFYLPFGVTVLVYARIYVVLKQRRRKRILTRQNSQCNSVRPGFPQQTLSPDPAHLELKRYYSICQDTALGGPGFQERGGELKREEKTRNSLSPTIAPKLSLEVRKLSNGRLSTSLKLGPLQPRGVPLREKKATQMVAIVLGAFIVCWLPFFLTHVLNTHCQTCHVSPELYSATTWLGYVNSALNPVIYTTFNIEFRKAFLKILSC

Row | Structure (SMILES) | inhibition [1] | inhibition [2] | inhibition [3] | inhibition [4] | inhibition [5] | inhibition [6] | inhibition [7] | inhibition [8] | Ki ([9]; read-out: Ki) | Ki ([9]; read-out: pKi (converted)) | inhibition [10] | inhibition [11] | Ki ([12]; read-out: Ki) | Ki ([12]; read-out: pKi (converted)) | Ki ([13]; read-out: Ki) | Ki ([13]; read-out: pKi (converted)) | inhibition [14] | inhibition [15] | inhibition [16] | inhibition [17] | further results
1 | CC1CCN(c2ccnc(NCc3cn(C)cn3)n2)CC1 [TP-040] | 30% | 7.21% | 47% | 51.8% | 4.65% | 5.83% | 36.6% | 81.9% | 0.417 µM | 0.631 µM | 67.4% | 2.33% | 3.43 µM | 3.39 µM | 1.94 µM | 1.91 µM | 33.6% | 25.1% | 81.8% | 20.6% | inhibition [18]: 24%; inhibition [19]: 17.2%; inhibition [20]: -5.62%; inhibition [21]: 20.6%; Ki ([22]; read-out: Ki): 0.699 µM; inhibition [23]: 34.6%; inhibition (Rattus norvegicus): 17.9%; inhibition [24]: 75.8%; inhibition [25]: 7.48%; inhibition [26]: 89.2%; inhibition [27]: 3.89%; inhibition [28]: 27.7%; Ki ([29]; read-out: Ki): 0.374 µM; Ki ([29]; read-out: pKi (converted)): 0.363 µM; inhibition [30]: 3.36%
2 | CN1CCN(c2ccnc(NCCc3ccccc3)n2)CC1 [TP-040n] | 26.7% | -1.51% | 22.6% | 96.8% | 8.02% | 35.8% | 98.8% | 53.2% | 2.04 µM | 1.82 µM | 22.9% | 34.6% | 0.414 µM | 0.407 µM | 3.11 µM | 3.02 µM | 77.2% | 6.46% | 91.7% | 25.9% | inhibition [18]: 59.8%; inhibition [19]: 18.6%; inhibition [20]: 22.1%; inhibition [21]: 98%; Ki ([22]; read-out: Ki): 0.291 µM; Ki ([22]; read-out: pKi (converted)): 0.282 µM; inhibition [23]: 92.4%; inhibition (Rattus norvegicus): -0.34%; inhibition [24]: 93.8%; inhibition [25]: -3.28%; inhibition [26]: 94.8%; inhibition [27]: 13%; inhibition [28]: 22.4%; Ki ([29]; read-out: Ki): 0.267 µM; Ki ([29]; read-out: pKi (converted)): 0.257 µM; inhibition [30]: 19.5%
